Tests used:
Format in all cases: biochemical
PI3K γ = molecular target: T1, PI3K γ (Homo sapiens, UniProt P48736); assay: In vitro IC50, PI3K γ
T1 construct: purchased Sigma
From the text: (§1) An exemplary system is PI 3-Kinase (human) HTRF™ Assay from Upstate.

PI3K α = molecular target: T2, PI3K α (Homo sapiens, UniProt P42336); assay: In vitro IC50, PI3K α
T2 construct: purchased Upstate
From the text: as §1

PI3K β = PI3K β (Homo sapiens, UniProt P42338); assay: In vitro IC50, PI3K β
From the text: as §1

PI3K δ = PI3K δ (Homo sapiens, UniProt O00329); assay: In vitro IC50, PI3K δ; set-up: purchased Upstate
From the text: as §1

PI3K δ, sequence (O00329 whole entry): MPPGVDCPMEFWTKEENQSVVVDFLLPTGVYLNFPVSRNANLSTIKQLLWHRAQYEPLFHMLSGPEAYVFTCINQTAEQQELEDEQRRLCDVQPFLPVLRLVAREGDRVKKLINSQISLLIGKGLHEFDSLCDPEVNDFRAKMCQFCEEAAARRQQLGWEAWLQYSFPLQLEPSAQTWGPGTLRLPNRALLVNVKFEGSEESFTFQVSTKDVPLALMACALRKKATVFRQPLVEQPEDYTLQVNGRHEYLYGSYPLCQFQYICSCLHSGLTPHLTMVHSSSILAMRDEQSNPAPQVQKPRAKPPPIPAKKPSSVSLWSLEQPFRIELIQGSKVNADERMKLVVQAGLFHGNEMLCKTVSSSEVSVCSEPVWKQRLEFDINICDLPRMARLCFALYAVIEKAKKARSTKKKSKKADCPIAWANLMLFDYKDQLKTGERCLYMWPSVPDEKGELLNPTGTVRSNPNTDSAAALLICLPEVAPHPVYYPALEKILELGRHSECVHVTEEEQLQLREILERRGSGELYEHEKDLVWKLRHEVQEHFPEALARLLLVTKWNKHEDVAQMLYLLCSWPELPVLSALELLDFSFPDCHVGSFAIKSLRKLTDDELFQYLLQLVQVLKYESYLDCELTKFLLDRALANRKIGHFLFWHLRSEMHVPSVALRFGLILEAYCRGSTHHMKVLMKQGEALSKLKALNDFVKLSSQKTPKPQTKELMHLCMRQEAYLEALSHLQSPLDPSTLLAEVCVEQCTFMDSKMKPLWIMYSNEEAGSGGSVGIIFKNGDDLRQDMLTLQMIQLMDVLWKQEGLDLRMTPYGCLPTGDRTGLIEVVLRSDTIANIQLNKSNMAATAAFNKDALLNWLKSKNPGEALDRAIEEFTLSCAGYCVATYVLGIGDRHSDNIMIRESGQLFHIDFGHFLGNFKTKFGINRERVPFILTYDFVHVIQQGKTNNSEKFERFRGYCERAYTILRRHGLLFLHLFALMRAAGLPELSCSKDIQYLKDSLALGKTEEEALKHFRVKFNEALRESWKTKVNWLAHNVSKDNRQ
PI3K δ, sequence (P27986 whole entry partner): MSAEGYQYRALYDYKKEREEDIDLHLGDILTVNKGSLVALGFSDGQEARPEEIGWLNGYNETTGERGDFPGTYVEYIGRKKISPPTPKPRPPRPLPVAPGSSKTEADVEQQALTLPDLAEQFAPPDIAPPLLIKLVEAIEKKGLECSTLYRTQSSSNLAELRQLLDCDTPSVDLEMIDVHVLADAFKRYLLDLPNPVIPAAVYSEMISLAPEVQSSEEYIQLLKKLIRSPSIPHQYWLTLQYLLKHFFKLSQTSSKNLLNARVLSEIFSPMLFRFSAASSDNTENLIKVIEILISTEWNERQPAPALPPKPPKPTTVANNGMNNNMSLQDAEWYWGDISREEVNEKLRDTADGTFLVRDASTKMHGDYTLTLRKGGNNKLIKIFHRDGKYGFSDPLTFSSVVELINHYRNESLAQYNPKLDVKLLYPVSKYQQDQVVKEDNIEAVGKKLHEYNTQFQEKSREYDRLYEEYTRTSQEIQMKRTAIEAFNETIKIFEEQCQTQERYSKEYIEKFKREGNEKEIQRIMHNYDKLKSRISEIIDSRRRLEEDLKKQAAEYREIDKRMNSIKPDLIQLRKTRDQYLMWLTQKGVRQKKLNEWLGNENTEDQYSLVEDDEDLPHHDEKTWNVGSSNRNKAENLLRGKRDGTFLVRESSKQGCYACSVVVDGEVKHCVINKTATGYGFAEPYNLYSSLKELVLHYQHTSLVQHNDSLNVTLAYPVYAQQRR
T1 sequence (P48736 whole entry): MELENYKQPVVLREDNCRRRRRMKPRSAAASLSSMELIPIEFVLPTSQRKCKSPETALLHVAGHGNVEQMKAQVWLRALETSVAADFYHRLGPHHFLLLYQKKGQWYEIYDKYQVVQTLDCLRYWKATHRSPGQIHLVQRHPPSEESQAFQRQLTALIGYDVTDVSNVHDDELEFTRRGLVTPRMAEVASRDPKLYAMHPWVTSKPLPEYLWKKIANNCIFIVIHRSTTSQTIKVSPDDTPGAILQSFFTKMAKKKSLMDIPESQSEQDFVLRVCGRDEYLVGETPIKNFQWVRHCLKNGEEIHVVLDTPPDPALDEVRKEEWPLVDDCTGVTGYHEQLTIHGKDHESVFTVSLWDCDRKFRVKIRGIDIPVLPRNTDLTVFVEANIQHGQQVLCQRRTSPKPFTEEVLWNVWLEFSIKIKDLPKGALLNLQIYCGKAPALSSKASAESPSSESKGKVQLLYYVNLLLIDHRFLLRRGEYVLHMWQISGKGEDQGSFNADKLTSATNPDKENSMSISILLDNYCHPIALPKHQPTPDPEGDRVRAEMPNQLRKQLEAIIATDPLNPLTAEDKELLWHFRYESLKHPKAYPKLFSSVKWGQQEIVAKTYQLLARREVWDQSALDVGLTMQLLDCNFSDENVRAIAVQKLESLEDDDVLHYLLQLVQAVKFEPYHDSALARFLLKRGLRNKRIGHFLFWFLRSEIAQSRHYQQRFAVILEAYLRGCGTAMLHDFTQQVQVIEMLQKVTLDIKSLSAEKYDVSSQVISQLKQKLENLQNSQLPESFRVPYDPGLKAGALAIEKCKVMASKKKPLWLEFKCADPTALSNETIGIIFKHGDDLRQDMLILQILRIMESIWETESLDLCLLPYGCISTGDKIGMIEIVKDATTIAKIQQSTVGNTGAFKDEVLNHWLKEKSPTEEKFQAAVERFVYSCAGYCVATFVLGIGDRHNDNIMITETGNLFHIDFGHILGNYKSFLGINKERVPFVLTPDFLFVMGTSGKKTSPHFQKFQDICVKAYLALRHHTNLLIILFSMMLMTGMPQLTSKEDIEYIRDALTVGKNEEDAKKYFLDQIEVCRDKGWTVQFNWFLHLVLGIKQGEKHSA
PI3K β, sequence (P42338 whole entry): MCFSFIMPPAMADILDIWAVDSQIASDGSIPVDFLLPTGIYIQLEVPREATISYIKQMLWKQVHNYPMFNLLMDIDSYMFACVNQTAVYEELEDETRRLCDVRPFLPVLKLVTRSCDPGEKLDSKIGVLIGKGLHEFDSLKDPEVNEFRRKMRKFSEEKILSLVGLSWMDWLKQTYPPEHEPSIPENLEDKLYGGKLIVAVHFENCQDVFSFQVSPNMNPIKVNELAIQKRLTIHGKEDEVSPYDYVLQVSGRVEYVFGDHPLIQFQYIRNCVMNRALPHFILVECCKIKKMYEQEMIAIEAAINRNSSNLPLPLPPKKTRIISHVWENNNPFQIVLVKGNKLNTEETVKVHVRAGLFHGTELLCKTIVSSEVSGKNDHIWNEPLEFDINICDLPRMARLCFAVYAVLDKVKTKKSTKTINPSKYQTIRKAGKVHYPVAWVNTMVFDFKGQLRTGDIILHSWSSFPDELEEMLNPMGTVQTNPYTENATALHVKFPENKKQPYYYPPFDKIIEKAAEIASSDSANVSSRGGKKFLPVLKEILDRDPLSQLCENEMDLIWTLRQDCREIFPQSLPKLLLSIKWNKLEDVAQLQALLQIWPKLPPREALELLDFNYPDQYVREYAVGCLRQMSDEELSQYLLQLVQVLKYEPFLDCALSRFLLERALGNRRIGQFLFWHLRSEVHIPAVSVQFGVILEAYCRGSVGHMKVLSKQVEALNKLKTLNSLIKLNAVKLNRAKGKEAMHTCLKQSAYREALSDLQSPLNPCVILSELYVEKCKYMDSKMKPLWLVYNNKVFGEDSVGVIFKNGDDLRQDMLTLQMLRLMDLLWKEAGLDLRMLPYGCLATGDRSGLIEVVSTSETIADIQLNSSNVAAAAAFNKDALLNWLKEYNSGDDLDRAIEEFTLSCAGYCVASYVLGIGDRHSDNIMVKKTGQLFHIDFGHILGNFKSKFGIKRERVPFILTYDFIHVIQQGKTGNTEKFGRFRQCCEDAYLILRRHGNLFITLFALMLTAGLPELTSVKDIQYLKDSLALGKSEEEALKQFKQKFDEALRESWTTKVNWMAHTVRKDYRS
T2 sequence (P42336 whole entry): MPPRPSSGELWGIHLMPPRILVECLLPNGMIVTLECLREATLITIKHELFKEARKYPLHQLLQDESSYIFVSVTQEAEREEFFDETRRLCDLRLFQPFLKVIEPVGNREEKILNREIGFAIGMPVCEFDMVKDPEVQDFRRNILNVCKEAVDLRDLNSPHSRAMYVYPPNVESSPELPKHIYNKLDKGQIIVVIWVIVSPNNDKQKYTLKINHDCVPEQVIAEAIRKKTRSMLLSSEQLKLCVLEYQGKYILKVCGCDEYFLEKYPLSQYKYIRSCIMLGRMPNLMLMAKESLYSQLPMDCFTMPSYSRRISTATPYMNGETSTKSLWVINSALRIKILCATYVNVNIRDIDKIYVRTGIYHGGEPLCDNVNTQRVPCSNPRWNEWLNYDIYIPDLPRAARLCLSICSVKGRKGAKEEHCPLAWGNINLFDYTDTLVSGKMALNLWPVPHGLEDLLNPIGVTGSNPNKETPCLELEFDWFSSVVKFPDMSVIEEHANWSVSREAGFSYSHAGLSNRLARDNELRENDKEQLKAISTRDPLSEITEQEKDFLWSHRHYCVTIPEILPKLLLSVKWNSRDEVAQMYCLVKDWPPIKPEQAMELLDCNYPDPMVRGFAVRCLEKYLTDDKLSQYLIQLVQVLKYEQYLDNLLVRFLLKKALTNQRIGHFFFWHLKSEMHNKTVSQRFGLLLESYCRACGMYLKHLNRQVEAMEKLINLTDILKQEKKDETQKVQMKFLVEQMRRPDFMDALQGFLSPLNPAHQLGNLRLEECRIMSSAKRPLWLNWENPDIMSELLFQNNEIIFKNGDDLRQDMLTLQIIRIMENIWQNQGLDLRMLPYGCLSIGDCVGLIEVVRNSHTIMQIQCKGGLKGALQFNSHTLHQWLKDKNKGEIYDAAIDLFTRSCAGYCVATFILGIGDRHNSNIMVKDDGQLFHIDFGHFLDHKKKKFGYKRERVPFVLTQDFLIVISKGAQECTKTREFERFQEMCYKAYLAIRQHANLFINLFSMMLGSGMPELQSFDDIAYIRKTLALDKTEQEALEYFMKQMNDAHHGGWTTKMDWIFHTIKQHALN
T2 sequence (P27986 whole entry partner): as the sequence (P27986 whole entry partner) above

IC50 (PI3K γ) [nM]	IC50 (PI3K α) [nM]	IC50 (PI3K β) [nM]	IC50 (PI3K δ) [nM]	SMILES
< 100	< 1000	< 1000	< 100	Cc1cccc2cc(Cn3nc(-c4cccc(O)c4)c4c(N)ncnc43)n(C3CC3)c(=O)c12 [Compound 102]
< 1000	> 10000	> 10000	< 100	Cc1cccc2cc(Cn3nc(I)c4c(N)ncnc43)n(-c3ccccc3OCCN3CCOCC3)c(=O)c12 [Compound 103]
< 10000	> 10000	> 10000	< 100	Cc1cccc2cc(Cn3nc(I)c4c(N)ncnc43)n(C3CCC3)c(=O)c12 [Compound 105]
< 1000	> 10000	< 10000	< 1000	COc1cccc(-c2nn(Cc3cc4cccc(C)c4c(=O)n3-c3ccccc3C)c3ncnc(N)c23)c1 [Compound 106]
< 10000	> 10000	> 10000	< 1000	Cc1cccc2cc(Cn3nc(I)c4c(N)ncnc43)n(C)c(=O)c12 [Compound 107]
< 1000	< 10000	< 10000	< 100	Cc1cccc2cc(Cn3nc(-c4cc(O)cc(F)c4)c4c(N)ncnc43)n(-c3ccccc3OCCN3CCOCC3)c(=O)c12 [Compound 108]
< 1000	> 10000	> 10000	< 100	Cc1cccc2cc(Cn3nc(-c4cccc(O)c4)c4c(N)ncnc43)n(-c3ccccc3OCCN3CCOCC3)c(=O)c12 [Compound 109]
< 100	< 100	< 100	< 100	Nc1ncnc2c1c(-c1cc(O)cc(F)c1)nn2Cc1cc2cccc(Cl)c2c(=O)n1C1CC1 [Compound 142]
< 100	< 1000	< 10000	< 100	Cc1ccccc1-n1c(Cn2nc(-c3ccc4nc(N)sc4c3)c3c(N)ncnc32)cc2cccc(C)c2c1=O [Compound 145]
< 100	> 10000	> 10000	< 100	Cc1cccc2cc(Cn3nc(-c4cccc(O)c4)c4c(N)ncnc43)n(-c3ccccc3)c(=O)c12 [Compound 146]
< 100	< 1000	< 10000	< 100	Cc1cccc2cc(Cn3nc(-c4cc(O)cc(F)c4)c4c(N)ncnc43)n(-c3ccccc3)c(=O)c12 [Compound 147]
< 100	< 1000	< 10000	< 100	Cc1ccccc1-n1c(Cn2nc(-c3ccc4nc(N)ccc4c3)c3c(N)ncnc32)cc2cccc(C)c2c1=O [Compound 149]
< 100	< 100	< 1000	< 100	Cc1ccccc1-n1c(Cn2nc(-c3ccc4nc(N)ncc4c3)c3c(N)ncnc32)cc2cccc(C)c2c1=O [Compound 150]
< 100	< 1000	< 10000	< 100	Cc1ccccc1-n1c(Cn2nc(-c3ccc4oc(N)nc4c3)c3c(N)ncnc32)cc2cccc(C)c2c1=O [Compound 151]
< 100	< 10000	> 10000	< 100	Cc1ccccc1-n1c(Cn2nc(-c3ccc4ncnc(N)c4c3)c3c(N)ncnc32)cc2cccc(C)c2c1=O [Compound 152]
< 100	> 10000	< 10000	< 100	Cc1ccccc1-n1c(Cn2nc(-c3cn[nH]c3)c3c(N)ncnc32)cc2cccc(C)c2c1=O [Compound 160]
< 1000	> 10000	< 10000	< 100	Cc1cccc2cc(Cn3nc(-c4cn[nH]c4)c4c(N)ncnc43)n(-c3ccccc3F)c(=O)c12 [Compound 161]
< 1000	> 10000	> 10000	< 100	Cc1cccc2cc(Cn3nc(-c4cnn(CCO)c4)c4c(N)ncnc43)n(-c3ccccc3F)c(=O)c12 [Compound 162]
< 10000	> 10000	> 10000	< 10000	Cc1cccc2cc(Cn3nc(-c4cnn(C)c4)c4c(N)ncnc43)n(-c3ccccc3F)c(=O)c12 [Compound 164]
< 1000	> 10000	> 10000	< 10000	Cc1ccccc1-n1c(Cn2nc(-c3cnn(C)c3)c3c(N)ncnc32)cc2cccc(C)c2c1=O [Compound 165]
< 1000	> 10000	> 10000	< 100	Cc1cccc2cc(Cn3nc(-c4cn[nH]c4)c4c(N)ncnc43)n(-c3cccc(F)c3)c(=O)c12 [Compound 166]
< 100	> 10000	< 10000	< 100	Cc1cccc2cc(C(C)Nc3ncnc4[nH]cnc34)n(-c3ccccc3F)c(=O)c12 (stereo not shown) [Compound 167]
< 10000	> 10000	> 10000	< 100	Cc1ccccc1-n1c(Cn2nc(C#N)c3c(N)ncnc32)cc2cccc(C)c2c1=O [Compound 170]
< 100	< 10000	< 10000	< 100	Cc1cccc2cc(Cn3nc(/C=C4/SC(=O)NC4=O)c4c(N)ncnc43)n(-c3ccccc3F)c(=O)c12 [Compound 171]

More lines, now with the values behind:

SMILES	IC50 (PI3K γ) [nM]	IC50 (PI3K α) [nM]	IC50 (PI3K β) [nM]	IC50 (PI3K δ) [nM]
COc1ccccc1-n1c(Cn2nc(-c3cccc(O)c3)c3c(N)ncnc32)cc2cccc(C)c2c1=O [Compound 74]	< 100	> 10000	< 10000	< 100
Cc1cccc2cc(Cn3nc(I)c4c(N)ncnc43)n(-c3ccccc3O)c(=O)c12 [Compound 79]	< 100	> 10000	> 10000	< 100
COc1ccccc1-n1c(Cn2nc(C#C[C@@H](C)O)c3c(N)ncnc32)cc2cccc(C)c2c1=O [Compound 80]	< 1000	> 10000	> 10000	< 100
Cc1cccc2cc(Cn3nc(-c4cccc(O)c4)c4c(N)ncnc43)n(-c3ccccc3O)c(=O)c12 [Compound 81]	< 100	> 10000	< 10000	< 100
Cc1cccc2cc(Cn3nc(-c4cccc(O)c4)c4c(N)ncnc43)n(-c3ccccc3C(C)C)c(=O)c12 [Compound 82]	< 100	> 10000	< 1000	< 100
Cc1cccc2cc(Cn3nc(C#C[C@@H](C)O)c4c(N)ncnc43)n(-c3ccccc3C(C)C)c(=O)c12 [Compound 83]	< 100	> 10000	< 10000	< 100
COc1ccccc1-n1c(Cn2nc(-c3cc(O)cc(F)c3)c3c(N)ncnc32)cc2cccc(C)c2c1=O [Compound 84]	< 100	< 10000	< 10000	< 100
Cc1cccc2cc(Cn3nc(I)c4c(N)ncnc43)n(C3CC3)c(=O)c12 [Compound 86]	< 100	< 10000	< 10000	< 100
Cc1cccc2cc(Cn3nc(I)c4c(N)ncnc43)n(C3CCCCC3)c(=O)c12 [Compound 87]	< 100	> 10000	> 10000	< 1000
CCc1ccccc1-n1c(Cn2nc(-c3cccc(O)c3)c3c(N)ncnc32)cc2cccc(C)c2c1=O [Compound 88]	< 100	> 10000	> 10000	< 100
CCc1ccccc1-n1c(Cn2nc(-c3cc(O)cc(F)c3)c3c(N)ncnc32)cc2cccc(C)c2c1=O [Compound 89]	< 100	< 10000	< 1000	< 100
Cc1cccc2cc(Cn3nc(-c4cc(O)cc(F)c4)c4c(N)ncnc43)n(-c3ccccc3O)c(=O)c12 [Compound 90]	< 100	< 10000	< 1000	< 100
Cc1cccc2cc(Cn3nc(C#C[C@@H](C)O)c4c(N)ncnc43)n(-c3ccccc3O)c(=O)c12 [Compound 91]	< 10000	> 10000	> 10000	< 100
Cc1cccnc1-n1c(Cn2nc(-c3cc(O)cc(F)c3)c3c(N)ncnc32)cc2ccccc2c1=O [Compound 93]	< 1000	> 10000	> 10000	< 100
Cc1cccc2cc(Cn3nc(-c4cc(O)cc(F)c4)c4c(N)ncnc43)n(-c3ccccc3C(C)C)c(=O)c12 [Compound 95]	< 100	< 1000	< 1000	< 100
Cc1cccc2cc(Cn3nc(-c4cccc(O)c4)c4c(N)ncnc43)n(-c3ccccc3Cl)c(=O)c12 [Compound 96]	< 100	> 10000	< 10000	< 100
Cc1cccc2cc(Cn3nc(-c4cc(O)cc(F)c4)c4c(N)ncnc43)n(-c3ccccc3Cl)c(=O)c12 [Compound 97]	< 100	< 10000	< 1000	< 100
Cc1cccc2cc(Cn3nc(C#C[C@@H](C)O)c4c(N)ncnc43)n(-c3ccccc3Cl)c(=O)c12 [Compound 98]	< 1000	> 10000	> 10000	< 100
CCc1ccccc1-n1c(Cn2nc(C#C[C@@H](C)O)c3c(N)ncnc32)cc2cccc(C)c2c1=O [Compound 99]	< 1000	> 10000	< 10000	< 100
Cc1cccc2cc(Cn3nc(C#C[C@@H](C)O)c4c(N)ncnc43)n(C3CC3)c(=O)c12 [Compound 100]	< 1000	> 10000	< 1000	< 100
Cc1cccc2cc(Cn3nc(-c4cc(O)cc(F)c4)c4c(N)ncnc43)n(C3CC3)c(=O)c12 [Compound 101]	< 100	< 1000	< 100	< 100
Cc1cccc2cc(Cn3nc(C#N)c4c(N)ncnc43)n(-c3ccccc3F)c(=O)c12 [Compound 169]	> 10000	> 10000	> 10000	< 100
